Read-outs that look alike come from different tables or passages of the source.
Legend:
[1] = target: T1, HSV-1 protease (assemblin) (Human herpesvirus 1, UniProt P10210); assay: Enzymatic assay for HSV-1 protease (assemblin) inhibition (FP assay / HPLC assay); format: biochemical
T1 construct: encoding residues 1-288 of HSV-1 UL26 open reading frame and 32 heterologous amino acid; 6xHis (N); made in house
Protocol: Enzymatic Assay for HSV-1 Protease (Assemblin) Inhibition
Assemblin protease activity was determined using fluorescence polarization (FP). The fluorescent substrate was biotin-gamma-aminobutyrate -[…]-DTAF, based on the HSV-1release cleavage site. […] A change in molecular size of fluorescent substrate molecule, which was increased using avidin as a reaction stop reagent, allowed cleavage to be measured by FP. Potential protease inhibitors were dissolved in DMF and then diluted 5-fold in assay buffer. […] The enzyme was diluted to 21.3 ug/mL in assay buffer (1M NaCitrate, 50 mM NaPhosphate, pH 7.4, 100mM NaCl, 20% glycerol, 2 mM TECP) and 48.5 uL were added to each well. Following a 30 minute incubation at room temperature, 10 uL of 62.5 ug/mL substrate were added. After about 90 minute incubation at room temperature, 50 uL of 2 mg/mL avidin in phosphate buffer (50 mM Naphosphate, 100 mM NaCl, pH 7.4) were added to each well. The plates were read by a fluorescence polarization plate reader. Inhibitor potency was determined by comparison with incubations lacking inhibitor.
Assays were performed with the peptide substrate H-His-Thr-Tyr-Leu-Gln-Ala-Ser-Glu-Lys-Phe-Lys-Met-Trp-Gly-NH2 (Bachem). This substrate is a HSV-1-amide UL26 Open Reading Frame (242-255) and is derived from the release site of HSV-1 protease. HSV-1protease cleaves between alanine and serine. The product […] was quantified on HPLC using fluorescence detection of tryptophan residue. Enzyme was diluted to 4.3 ug/mL in assay buffer (1 M NaCitrate, 50 mM NaPhosphate, pH 7.3, 100 mM NaCl, 20% glycerol, 2 mM TCEP) and 48.5 uL were added to the tubes. Potential protease inhibitors were dissolved in DMF and then diluted 10-fold in assay buffer. 6.5 uL of inhibitor solution were added to each tube. Following a 30-minute incubation at room temperature, 10 uL of substrate in phosphate buffer (50 mM Naphosphate, 100 mM NaCl, pH 7.4) were added to all tubes. The final concentration of the substrate in the reaction mixtures was 10 uM. After a 15-minute incubation at room temperature, assays were quenched using 50 uL of 50% TCA. Inhibitor potency was determined by comparison with incubations lacking inhibitor, which under these conditions gave about 20% cleavage of substrate.
Recombinant HSV-1 Protease
HSV-1 protease was purified from baculovirus expressing a DNA construction encoding residues 1-288 of HSV-1 UL26 open reading frame and 32 heterologous amino acid. The construction also encoded six additional histidine residues at the amino terminus of the protease. These additional histidine residues provided an affinity ligand by which the protein was purified using Ni-NTA agarose gel (Qiagen). The purified protease was stored in stock solution (20 mM HEPES buffer, pH 8.5, containing 20% (v/v) glycerol). This stock was diluted with assay buffer to adequate concentration of enzymatic assay.
A specific substrate was synthesized based on the cleavage specificity of HSV-1 protease at the “release site” of the assembly protein (DiIanni, C. L., et al., J. Biol. Chem. 268, 2048, (1993)). The assembly protein release site has the sequence, HTYLQA*SEKFKMWG. The substrate used was biotin-gamma -aminobutyrate-HTYLQA*SERFRIK-DTAF which was prepared by standard peptide synthetic methods such as that described in Bodansky and Bodansky, “The Practice of Peptide Synthesis” (1984), and was stored as a stock solution at 2.5 mg/mL in DMF. This was diluted to 62.5 ug/mL with phosphate buffer (50 mM Naphosphate, […], pH 7.4) just before use.
The substrate was HSV-1-amide UL 26 Open Reading Frame (242-255), obtained from Bachem (Product No. M-2160).
An assay buffer (1 M NaCitrate, 50 mM NaPhosphate, pH 7.4, 100 mM NaCl, 20% glycerol, 2 mM TCEP) was used to dilute stock solutions of enzyme and inhibitors.

[2] = target: T2, Bovine pancreas α-chymotripsin (Bos taurus, UniProt P00766); assay: Chymotripsin assay; format: biochemical; settings: 50 μM compound; 30 minutes pre-incubation; read-out: INHIBITION AT 50 μM CHYMOTRYPSIN (%)
T2 construct: purchased Sigma type II; host or cells: bovine pancreas
Protocol: The chymotripsin assay was modified from the method of Delmar, et al. (Anal. Biochem. 99, 316-320 (1979)). Bovine pancreas α-chymotripsin(type II, Sigma) was dissolved in 0.001 N HCl at 1 mg/ml and further diluted 1/1000 in assay buffer (0.1 M Tris, pH 7.8 containing 0.1 M CaCl2) before use. 0.75 μl of test compound in DMF (or DMF alone), 50 μl of assay buffer and 50 μl of enzyme were added to 96 wells plates, mixed and pre-incubated for 30 minutes at ambient temperature. Reaction was initiated by addition of 50 μl of 0.2 mM N-succinyl-Ala-Ala-Pro-Phe-p-nitroanilide (Sigma; 2 mM in DMSO diluted 1/10 in assay buffer before use). The increase in absorbance at 405 nm was monitored for 3 minutes with BIO-RAD model 3550 microplate-reader.

HSV-1 = assay: Antiviral assay: plaque reduction assay, HSV-1 in vero cells; format: cell-based, HSV-1 (vero cells, African green monkey kidney cell); settings: Human alphaherpesvirus 1, Vero, 72 h, read-out: ANTIVIRUS EC50
Excerpt: These complimentary assays tested the ability of a compound to inhibit the production of new virus and the toxicity of the compound to the host cells. It was important that both assays be performed simultaneously in order to compare the results directly since toxicity may indirectly reduce viral replication.
The antiviral assay was estimated by plaque reduction assay performed by following methods. 1×10^5 of vero cells (African green monkey kidney cell) in 48-well plates were over-night cultured and the medium of this culture was replaced with 200 μl of 2% FBS DMEM containing 2× the desired final cordon of test compounds or no compound as control. The cultures were added 50 μl of 2% FBS DMEM containing with about 50 plaque forming units of HSV-1and next 250 μl of 2% FBS DMEM containing 1% methylcellulose. These infected cultures were incubated at 37° C., 5% CO2 for 3 days until plaques was visible. The cells were fixed and stained simultaneously with 0.025% crystalviolet in 5% formalin solution and plaque were counted. The concentration of test compound which conferred 50% inhibition of plaque formation compared to no compound control was interpolated from the observed data and defined as IC50.

[3] = target: T3, Human leukocyte elastase (HLE) (Homo sapiens, UniProt P08246); assay: Human leukocyte elastase assay; format: biochemical; settings: 50 μM compound; 30 minutes pre-incubation
T3 construct: purchased CALBIOCHEM
T3 sequence (P08246 30-267): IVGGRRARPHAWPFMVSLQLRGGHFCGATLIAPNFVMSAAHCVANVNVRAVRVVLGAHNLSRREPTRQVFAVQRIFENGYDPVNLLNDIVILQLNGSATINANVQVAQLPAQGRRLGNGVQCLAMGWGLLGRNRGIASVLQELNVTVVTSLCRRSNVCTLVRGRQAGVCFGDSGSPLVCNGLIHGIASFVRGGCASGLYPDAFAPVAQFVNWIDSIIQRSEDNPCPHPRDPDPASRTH
Protocol: Human Leukocyte Elastase Assay
Human leukocyte elastase (HLE) (CALBIOCHEM) was dissolved in saline at 1 mg/ml and further diluted 1/10 in assay buffer (0.2 M Tris, pH 8.0) before use.
0.75 μl of test compound in DMF (or DMF alone), 50 μl of assay buffer and 50 μl of enzyme were added to 96 well plate, mixed and pre-incubated for 30 minutes at ambient temperature. Reaction was initiated by addition of 50 μl of 2.5 mM methoxysuccinyl-Ala-Ala-Pro-Val-p-nitroanilide (Sigma; 25 mM in DMSO diluted 1/10 in assay buffer before use). The increase in absorbance at 405 nm was monitored for 3 min. with BIO-RAD model 3550 microplate reader.

[4] = recombinant HSV-1 protease, 30 minute pre-incubation at room temperature, FP or HPLC format not stated, read-out: ENZYME IC50

T1 sequence (P10210 1-288): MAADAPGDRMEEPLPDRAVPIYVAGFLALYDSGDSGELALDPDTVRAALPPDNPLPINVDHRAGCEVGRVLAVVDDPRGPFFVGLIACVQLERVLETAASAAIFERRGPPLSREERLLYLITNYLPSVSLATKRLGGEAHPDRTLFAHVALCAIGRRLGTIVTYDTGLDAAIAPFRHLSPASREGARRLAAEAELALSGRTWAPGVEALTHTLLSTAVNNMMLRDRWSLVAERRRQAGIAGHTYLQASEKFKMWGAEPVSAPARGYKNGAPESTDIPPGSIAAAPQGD

| SMILES | IC50 [1, 4] | inhibition at 50 µM [2] | EC50 (HSV-1) | inhibition at 50 µM [3] | IC50 [1] |
| --- | --- | --- | --- | --- | --- |
| CCN(CC)c1nc2cccc(C)c2c(=O)o1 [CC1, reference compound] | 20 µM |  |  |  |  |
| Cc1cccc2nc(N(C)Cc3ccccc3)oc(=O)c12 [CC2, reference compound] | 3.2 µM | 101% | 7.5 µM | 101% |  |
| Cc1cccc2nc(N(C)Cc3ccccn3)oc(=O)c12 [CC3, reference compound] | 3.2 µM | 100% | 48.9 µM | 100% |  |
| Cc1c(Br)ccc2nc(N(C)Cc3ccccc3)oc(=O)c12 [CC4, reference compound] |  | 102% | 15 µM | 98% |  |
| Cc1cccc2nc(N3CCN(C)CC3)oc(=O)c12 [CC5, reference compound] |  | 98% | > 50 µM | 100% | 28 µM |
| Cc1cccc2nc(N(C)CCN3CCOCC3)oc(=O)c12 [CC6, reference compound] | 11.8 µM | 97% | > 50 µM | 99% |  |
| Cc1c(NC(=O)OC(C)(C)C)ccc2nc(N(C)Cc3ccccc3)oc(=O)c12 [Compound 1, 6-[[(1,1-Dimethylethoxy)carbonyl]amino]-5-methyl-2-[methyl(phenylmethyl)amino]-4H-3,1-benzoxazin-4-one] | 0.6 µM | 13% | 1.1 µM | 32% |  |
| Cc1c(NC(=O)c2ccccc2)ccc2nc(N(C)Cc3ccccc3)oc(=O)c12 [Compound 2, 6-(benzoylamino)-5-methyl-2-[methyl(phenylmethyl)amino]-4H-3,1-benzoxazin-4-one] | 0.7 µM | 7% | 4.6 µM | 26% |  |
| COc1ccc(CN(C)c2nc3ccc(NC(=O)OC(C)(C)C)c(C)c3c(=O)o2)cc1 [Compound 3, 6-[[(1,1-Dimethylethoxy)carbonyl]amino]-5-methyl-2-[methyl[(4-methoxyphenyl)methyl]amino]4H-3,1-benzoxazin-4-one] | 0.6 µM | 0% | 0.16 µM | 0% |  |
| Cc1c(NC(=O)OC(C)(C)C)ccc2nc(N(C)Cc3ccc(N(C)C)cc3)oc(=O)c12 [Compound 4, 6-[[(1,1-Dimethylethoxy)carbonyl]amino]-5-methyl-2-[[[4-(dimethylamino)phenyl]methyl]methylamino]-4H-3,1-benzoxazin-4-one] | 1.3 µM | 0% | 0.05 µM | 0% |  |
| Cc1c(NC(=O)OC(C)(C)C)ccc2nc(N(C)CCc3c[nH]c4ccccc34)oc(=O)c12 [Compound 5, 6-[[(1-Dimethylethoxy)carbonyl]amino]-5-methyl-2-[methyl[2-(3-indolyl)ethyl]amino]-4H-3,1-benzoxazin-4-one] | 3.5 µM | 13.1% | 3.2 µM | 0% |  |
| Cc1c(NC(=O)OC(C)(C)C)ccc2nc(N3CCOCC3)oc(=O)c12 [Compound 6, 6-[[(1,1-Dimethylethoxy)carbonyl]amino]-5-methyl-2-(4-morpholyl)-4H-3,1-benzoxazin-4-one] | 3.7 µM | 0% | 2.9 µM | 0% |  |
| C=CCN(C)c1nc2ccc(NC(=O)OC(C)(C)C)c(C)c2c(=O)o1 [Compound 7, 6-[[(1,1-Dimethylethoxy)carbonyl]amino]-5-methyl-2-[allyl(methyl)amino]-4H-3,1-benzoxazin-4-one] | 3.4 µM | 6.9% | 4.1 µM | 0% |  |
| Cc1c(NC(=O)OC(C)(C)C)ccc2nc(N3CC=CCC3)oc(=O)c12 [Compound 8, 6-[[(1,1-Dimethylethoxy)carbonyl]amino]-5-methyl-2-[1-(1,2,3,6-tetrahydro-pyridyl)]-4H-3,1-benzoxazin-4-one] | 5 µM | 0% | 3.3 µM | 0% |  |
| Cc1c(NC(=O)OC(C)(C)C)ccc2nc(N(C)C(C)C)oc(=O)c12 [Compound 10, 6-[[(1,1-Dimethylethoxy)carbonyl]amino]-5-methyl-2-[isopropyl(methyl)amino]-4H-3,1-benzoxazin-4-one] | 7.8 µM | 0% | 3.3 µM | 0% |  |
| Cc1c(NC(=O)OC(C)(C)C)ccc2nc(N3CCCC4CCCCC43)oc(=O)c12 (stereo not drawn) [Compound 11, 6-[[(1,1-Dimethylethoxy)carbonyl]amino]-5-methyl-2-(decahydroquinolyl)-4H-3,1benzoxazin-4-one] | 5.5 µM | 0% | 2.8 µM | 0% |  |

Reference: patent US6806269B1, “2-Amino-benzoxazinones for the treatment of herpes simplex virus” (G. D. Searle & Cop, priority 1999, dated 2004)
